Data from patent US20220396777A1, “PATIENT-MATCHED ORGANOID SYSTEMS FOR STUDYING CANCER” (Dana-Farber Cancer Institute, Inc., priority 2019, published 2022).

Test system: organoids from classical versus basal-like tumors
Assay: IFNγ treatment of organoids from classical and basal-like tumors
Format: cell-based, human
Excerpt: FIG. 37—Micrographs and graph showing results of IFNγ treatment in organoids from classical and basal-like tumors.
Applicants next asked whether organoids from classical versus basal-like tumors respond differently to addition of IFNγ.

## IFNγ: cytokine (type II interferon) added to organoid cultures
Classical expression state, patient-derived PDAC organoids (FIG. 37)
  effect on expression state in organoids: select against the classical expression state
patient-derived PDAC organoids (FIG. 37)
  return to a basal state: may not be sufficient to drive complete return to a basal state
patient-derived PDAC organoids, classical versus basal-like tumors, preliminary results (FIG. 37)
  growth inhibition by IFNγ: more pronounced in organoids derived from classical tumors
